Laboratory results from patent US20150219624A1, “METHODS FOR IDENTIFYING ANTI-CANCER COMPOUNDS” (MEMORIAL SLOAN KETTERING CANCER CENTER, priority 2013, published 2015).

Columns and labels:
KOPTK1 cells = assay: Transcriptome-scale ribosome footprinting (translational efficiency, rDiff ribosome distribution); assay type: cell-based, human; conditions: for log2(Translational Efficiency): TE down genes with G-Quadruplex structure
Description: Ribosome Footprinting. KOPTK1 cells were treated with silvestrol or DMSO for 45 minutes, followed by cycloheximide treatment for 10 minutes and then harvested for total RNA and ribosome footprint fragment isolation. Total RNA was isolated using RNA isolation kit from Qiagen (74104) and subjected to RNA sequencing. Ribosome protected fragments were isolated following published protocol (Ingolia et al., 2009). Briefly cell lysates were subjected to ribosome footprinting by nuclease treatment. Footprint fragments were purified by one step sucrose cushion and gel extraction. Deep sequencing libraries were generated from these fragments. Both total RNA and footprint fragment libraries were analyzed by sequencing on the HiSeq 2000 platform.
Sequence Alignment. Sequences were aligned to the transcripts available from the human genome sequence hg19 from UCSC public database. Ribosome footprint (RF) reads were aligned to reference genome hg19 using PALMapper (Jean et al., 2010). Only the uniquely aligned reads were used for analysis. Read length of 25- to 35-bp was selected and used to analyze the translation effect of silvestrol. Total mRNA sequencing reads were aligned to the hg19 reference using STAR (Dobin et al., 2013). The splice alignment was used, and only used the uniquely aligned reads with maximum 3 mismatches.
Footprint Profile Analysis. The genome annotation was from GENCODE project (http://www.gencodegenes.org/releases/14.html). Ribosome footprint intensity (reads per million, RPM) and the expression value (reads per kilobase per million, RPKM) were measured from total mRNA-seq data and translation values were measured from ribosome footprint data. To evaluate the translation efficiency (TE) change between silvestrol- and vehicle-treated samples, TE was calculated as RPKMfootprint/RPKMmRNA (as Thoreen et al. did recently (Thoreen et al., 2012)). Changes in ribosome footprint profiles were determined by using DEXSeq algorithm (Anders et al., 2012). DEXSeq accounts for the discrete nature of the read counts and models biological variability to avoid false positives. Ratio of TEsilvestrol/TEcontrol of all the genes was plotted and color-highlighted according to the statistical significance of DEXSeq test.
Ribosome distribution analysis. The ribosomal distribution change was evaluated between silvestrol treated samples and controls. A BED file containing all non-overlapped exonic regions was generated based on genome annotation. Then the BED file and footprint BAM files were given as an input to SAMTOOLS (Li et al., 2009a) to generate new BAM files that only included exonic alignment. The exonic BAM files were input for two conditions to rDiff (Drewe et al., 2013) to identify genes that presented significant change in ribosomal distribution.
Sequence Alignment. The human genome sequence hg19 was downloaded from UCSC public database: http://hgdownload.cse.ucsc.edu/goldenPath/hg19/chromosomes. Ribosome footprint (RF) reads were aligned to reference genome hg19 using PALMapper (Jean et al., 2010). PALMapper clips the linker sequence (5′-[…]-3′), which is technically introduced during RF library construction, and trims the remaining sequence from the 3′ end while aligning the reads to reference sequence. Briefly, the parameters for PALMapper were set as follows: maximum number of mismatches: 2; maximum number of gaps: 0; minimum aligning length: 15; maximum intron length (splice alignment): 10000; minimum length of a splicing read aligned to either side of the intron boundary: 10. Only the uniquely aligned reads were used for further analysis.
To remove ribosome RNA contamination, the footprint reads were also aligned to a ribosome sequence database using PALMapper with the same parameters except allowing splice alignment. […]

murine T-ALL cells = assay: Silvestrol effect on murine T-ALL cells with engineered genetic lesions; assay type: cell-based; conditions: cells expressing Akt, mutant IL7R, eIF4E or shRNA against Pten

Structure (SMILES): COC(=O)[C@H]1[C@@H](O)[C@@]2(O)c3c(OC)cc(O[C@@H]4O[C@@H]([C@H](O)CO)CO[C@H]4OC)cc3O[C@@]2(c2ccc(OC)cc2)[C@@H]1c1ccccc1 [silvestrol]
- effect on cap-dependent translation (ribosome footprints) (KOPTK1 cells; 25 nM, 45 minutes): immediate and broad inhibitory effect
- log2(Translational Efficiency) (KOPTK1 cells; gene ADAM10 (ENSG00000137845)): −0.2089
- log2(Translational Efficiency) (KOPTK1 cells; gene AFTPH (ENSG00000119844)): −0.5917
- log2(Translational Efficiency) (KOPTK1 cells; gene ATP2B4 (ENSG00000058668)): −0.3028
- log2(Translational Efficiency) (KOPTK1 cells; gene BCL11B (ENSG00000127152)): −0.5178
- log2(Translational Efficiency) (KOPTK1 cells; gene C16orf72 (ENSG00000182831)): −0.2553
- log2(Translational Efficiency) (KOPTK1 cells; gene CAMK2D (ENSG00000145349)): −0.4082
- log2(Translational Efficiency) (KOPTK1 cells; gene CCRN4L (ENSG00000151014)): −0.4802
- log2(Translational Efficiency) (KOPTK1 cells; gene CDIPT (ENSG00000103502)): −0.324
- log2(Translational Efficiency) (KOPTK1 cells; gene CERS6 (ENSG00000172292)): −0.2051
- log2(Translational Efficiency) (KOPTK1 cells; gene CHIC2 (ENSG00000109220)): −0.5212
- log2(Translational Efficiency) (KOPTK1 cells; gene CHST11 (ENSG00000171310)): −0.146
- log2(Translational Efficiency) (KOPTK1 cells; gene CPSF4 (ENSG00000160917)): −0.3194
- log2(Translational Efficiency) (KOPTK1 cells; gene DIAPH1 (ENSG00000131504)): −0.2136
- log2(Translational Efficiency) (KOPTK1 cells; gene DOM3Z (ENSG00000204348)): −0.5959
- log2(Translational Efficiency) (KOPTK1 cells; gene DYNLL2 (ENSG00000121083)): −0.1378
- log2(Translational Efficiency) (KOPTK1 cells; gene EP300 (ENSG00000100393)): −0.4645
- log2(Translational Efficiency) (KOPTK1 cells; gene FAM49B (ENSG00000153310)): −0.1392
- log2(Translational Efficiency) (KOPTK1 cells; gene FKRP (ENSG00000181027)): −0.996
- log2(Translational Efficiency) (KOPTK1 cells; gene FOXJ2 (ENSG00000065970)): −0.4735
- log2(Translational Efficiency) (KOPTK1 cells; gene GABARAPL1 (ENSG00000139112)): −1.234
- log2(Translational Efficiency) (KOPTK1 cells; gene GIPC1 (ENSG00000123159)): −0.4783
- log2(Translational Efficiency) (KOPTK1 cells; gene GNB1 (ENSG00000078369)): −0.1338
- log2(Translational Efficiency) (KOPTK1 cells; gene GYG2 (ENSG00000056998)): −0.9297
- log2(Translational Efficiency) (KOPTK1 cells; gene HDGFRP3 (ENSG00000166503)): −0.6088
- log2(Translational Efficiency) (KOPTK1 cells; gene HIPK1 (ENSG00000163349)): −0.2827
- log2(Translational Efficiency) (KOPTK1 cells; gene ITPR1 (ENSG00000150995)): −0.6283
- log2(Translational Efficiency) (KOPTK1 cells; gene MAP3K2 (ENSG00000169967)): −0.377
- log2(Translational Efficiency) (KOPTK1 cells; gene MAPKAPK2 (ENSG00000162889)): −0.3527
- log2(Translational Efficiency) (KOPTK1 cells; gene MBNL1 (ENSG00000152601)): −0.1522
- log2(Translational Efficiency) (KOPTK1 cells; gene MED13 (ENSG00000108510)): −0.2939
- log2(Translational Efficiency) (KOPTK1 cells; gene MED13L (ENSG00000123066)): −0.4159
- log2(Translational Efficiency) (KOPTK1 cells; gene MGRN1 (ENSG00000102858)): −0.3096
- log2(Translational Efficiency) (KOPTK1 cells; gene MTA2 (ENSG00000149480)): −0.2235
- log2(Translational Efficiency) (KOPTK1 cells; gene MYO9A (ENSG00000066933)): −0.4735
- log2(Translational Efficiency) (KOPTK1 cells; gene NANS (ENSG00000095380)): −0.3218
- log2(Translational Efficiency) (KOPTK1 cells; gene NDFIP1 (ENSG00000131507)): −0.2429
- log2(Translational Efficiency) (KOPTK1 cells; gene PABPC4 (ENSG00000090621)): −0.2428
- log2(Translational Efficiency) (KOPTK1 cells; gene PAFAH1B1 (ENSG00000007168)): −0.3832
- log2(Translational Efficiency) (KOPTK1 cells; gene PAFAH1B2 (ENSG00000168092)): −0.3883
- log2(Translational Efficiency) (KOPTK1 cells; gene PAIP2 (ENSG00000120727)): −0.1573
- log2(Translational Efficiency) (KOPTK1 cells; gene PAK4 (ENSG00000130669)): −0.628
- log2(Translational Efficiency) (KOPTK1 cells; gene PANX1 (ENSG00000110218)): −0.3987
- log2(Translational Efficiency) (KOPTK1 cells; gene PATZ1 (ENSG00000100105)): −0.3245
- log2(Translational Efficiency) (KOPTK1 cells; gene PPP6R1 (ENSG00000105063)): −0.1576
- log2(Translational Efficiency) (KOPTK1 cells; gene PTGER4 (ENSG00000171522)): −0.2748
- log2(Translational Efficiency) (KOPTK1 cells; gene PTP4A2 (ENSG00000184007)): −0.1429
- log2(Translational Efficiency) (KOPTK1 cells; gene QKI (ENSG00000112531)): −0.2913
- log2(Translational Efficiency) (KOPTK1 cells; gene RFXANK (ENSG00000064490)): −0.3247
- log2(Translational Efficiency) (KOPTK1 cells; gene RNF4 (ENSG00000063978)): −0.3442
- log2(Translational Efficiency) (KOPTK1 cells; gene RNF19A (ENSG00000034677)): −0.4839
- log2(Translational Efficiency) (KOPTK1 cells; gene RPS12 (ENSG00000112306)): −0.1732
- log2(Translational Efficiency) (KOPTK1 cells; gene SHISA2 (ENSG00000180730)): −0.6086
- log2(Translational Efficiency) (KOPTK1 cells; gene SLC25A22 (ENSG00000177542)): −0.3386
- log2(Translational Efficiency) (KOPTK1 cells; gene SLC35B3 (ENSG00000124786)): −0.9178
- log2(Translational Efficiency) (KOPTK1 cells; gene SMEK1 (ENSG00000100796)): −0.1765
- log2(Translational Efficiency) (KOPTK1 cells; gene SRRM2 (ENSG00000167978)): −0.08166
- log2(Translational Efficiency) (KOPTK1 cells; gene STAG2 (ENSG00000101972)): −0.1873
- log2(Translational Efficiency) (KOPTK1 cells; gene TAF6 (ENSG00000106290)): −0.2102
- log2(Translational Efficiency) (KOPTK1 cells; gene TBC1D24 (ENSG00000162065)): −1.231
- log2(Translational Efficiency) (KOPTK1 cells; gene TGFB1 (ENSG00000105329)): −0.2213
- log2(Translational Efficiency) (KOPTK1 cells; gene TLE3 (ENSG00000140332)): −0.2278
- log2(Translational Efficiency) (KOPTK1 cells; gene TMEM248 (ENSG00000106609)): −0.2362
- log2(Translational Efficiency) (KOPTK1 cells; gene TNRC6B (ENSG00000100354)): −0.4442
- log2(Translational Efficiency) (KOPTK1 cells; gene TRIM2 (ENSG00000109654)): −2.147
- log2(Translational Efficiency) (KOPTK1 cells; gene TUBGCP4 (ENSG00000137822)): −0.5346
- log2(Translational Efficiency) (KOPTK1 cells; gene UBE2G1 (ENSG00000132388)): −0.3367
- log2(Translational Efficiency) (KOPTK1 cells; gene USP20 (ENSG00000136878)): −0.2066
- log2(Translational Efficiency) (KOPTK1 cells; gene ZNF48 (ENSG00000180035)): −0.5828
- log2(Translational Efficiency) (KOPTK1 cells; gene ZNF800 (ENSG00000048405)): −0.2711
- sensitivity of murine T-ALL cells (murine T-ALL cells): no significant difference in sensitivity
